Results: ChEMBL document CHEMBL4007384, “Synthesis and optimization of furano[3,2-d]pyrimidines as selective spleen tyrosine kinase (Syk) inhibitors” (Bioorg Med Chem Lett, 2016)
Converted amounts (≈) assume the structure as drawn. Each block holds one molecule with its values, some of them ahead of it.

What was measured:
[1] = Unbound clearance in rat microsomes; assay type: ADME, Microsome
[2] = Unbound clearance in human microsomes; assay type: ADME, Microsome
[3] = Solubility in pH 5 FeSSIF at 0.2 mg sonicated for 10 mins followed by incubation for 2 days by HPLC analysis; assay type: physicochemical
Cytochrome P450 3A4 = Cytochrome P450 3A4 (Homo sapiens, UniProt P08684); assay: Time-dependent inhibition of CYP3A4 in human liver microsomes at 10 to 50 uM; assay type: ADME
Chain of Cytochrome P450 3A4 (P08684 whole entry): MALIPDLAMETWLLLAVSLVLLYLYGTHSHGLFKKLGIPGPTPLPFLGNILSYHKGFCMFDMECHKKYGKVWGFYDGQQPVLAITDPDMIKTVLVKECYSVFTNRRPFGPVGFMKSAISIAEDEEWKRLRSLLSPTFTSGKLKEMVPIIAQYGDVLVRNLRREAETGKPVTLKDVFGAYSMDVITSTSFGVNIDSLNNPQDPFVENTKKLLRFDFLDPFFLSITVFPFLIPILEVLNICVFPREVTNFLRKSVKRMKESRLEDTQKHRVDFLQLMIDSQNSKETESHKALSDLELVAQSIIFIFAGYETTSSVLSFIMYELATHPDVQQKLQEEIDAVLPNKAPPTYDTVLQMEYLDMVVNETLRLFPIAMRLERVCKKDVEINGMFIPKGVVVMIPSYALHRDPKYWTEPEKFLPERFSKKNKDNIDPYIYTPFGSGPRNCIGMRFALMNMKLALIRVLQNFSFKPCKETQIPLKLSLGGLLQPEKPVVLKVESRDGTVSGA

CYP3A4 [4] = biological target: T1, CYP3A4 (Homo sapiens, UniProt P08684); assay: Inhibition of CYP3A4 in human liver microsomes assessed as residual activity at 10 uM measured immediately relative to control; assay type: ADME; details: read-out: Activity
T1 sequence (P08684 whole entry): as above

CYP3A4 [5] = biological target: T1, CYP3A4; assay: Inhibition of CYP3A4 in human liver microsomes assessed as residual activity at 50 uM measured immediately relative to control; assay type: ADME; details: read-out: Activity
CYP3A4 [6] = biological target: T1, CYP3A4; assay: Inhibition of CYP3A4 in human liver microsomes assessed as residual activity at 10 uM measured after 30 mins relative to control; assay type: ADME; details: read-out: Activity
CYP3A4 [7] = biological target: T1, CYP3A4; assay: Inhibition of CYP3A4 in human liver microsomes assessed as residual activity at 50 uM measured after 30 mins relative to control; assay type: ADME; details: read-out: Activity
Rattus norvegicus [8] = assay: Antiarthritic activity in rat model of collagen-induced arthritis assessed as inhibition of paw swelling at 3 mg/kg, bid for 8 days relative to control; assay type: functional; details: 192 h
[9] = Clearance in rat at 1 mg/kg, iv; assay type: ADME, organism-based; details: in vivo
[10] = Clearance in dog at 1 mg/kg, iv; assay type: ADME, organism-based, Canis lupus familiaris; details: in vivo
[11] = Half life in rat at 1 mg/kg, iv; assay type: ADME, organism-based; details: in vivo
[12] = Half life in dog at 1 mg/kg, iv; assay type: ADME, organism-based, Canis lupus familiaris; details: in vivo
[13] = Volume of distribution at steady state in rat at 1 mg/kg, iv; assay type: ADME, organism-based; details: in vivo, read-out: Vdss
[14] = Volume of distribution at steady state in dog at 1 mg/kg, iv; assay type: ADME, organism-based, Canis lupus familiaris; details: in vivo, read-out: Vdss
[15] = Oral bioavailability in rat at 1 mg/kg; assay type: ADME, organism-based; details: in vivo
[16] = Oral bioavailability in dog at 1 mg/kg; assay type: ADME, organism-based, Canis lupus familiaris; details: in vivo
[17] = AUC in rat at 1 mg/kg, po; assay type: ADME, organism-based; details: in vivo
[18] = AUC in dog at 1 mg/kg, po; assay type: ADME, organism-based, Canis lupus familiaris; details: in vivo
[19] = Cmax in rat at 1 mg/kg, po; assay type: ADME, organism-based; parameters: dose 1 mg/kg, route oral; details: in vivo
[20] = Cmax in dog at 1 mg/kg, po; assay type: ADME, organism-based, Canis lupus familiaris; parameters: dose 1 mg/kg, route oral; details: in vivo
Rattus norvegicus [21] = assay: Antiarthritic activity in po dosed rat model of collagen-induced arthritis assessed as inhibition of paw swelling administered bid for 8 days; details: 192 h
Rattus norvegicus [22] = assay: Antiarthritic activity in rat model of collagen-induced arthritis assessed as inhibition of paw swelling at 0.3 mg/kg, bid for 8 days relative to control; assay type: functional; details: 192 h
Rattus norvegicus [23] = assay: Antiarthritic activity in rat model of collagen-induced arthritis assessed as inhibition of paw swelling at 1 mg/kg, bid for 8 days relative to control; assay type: functional; details: 192 h
Rattus norvegicus [24] = assay: Antiarthritic activity in rat model of collagen-induced arthritis assessed as inhibition of paw swelling at 10 mg/kg, bid for 8 days relative to control; assay type: functional; details: 192 h
Rattus norvegicus [25] = assay: Antiarthritic activity in rat model of collagen-induced arthritis assessed as inhibition of paw swelling at 30 mg/kg, bid for 8 days relative to control; assay type: functional; details: 192 h
Rattus norvegicus [26] = assay: Toxicity in rat model of collagen-induced arthritis at 0.3 to 30 mg/kg, po bid for 8 days; assay type: organism-based; details: in vivo, 192 h
[27] = biological target: Voltage-gated inwardly rectifying potassium channel KCNH2 (Homo sapiens, UniProt Q12809); assay: Inhibition of human ERG
Chain of Voltage-gated inwardly rectifying potassium channel KCNH2 (Q12809 whole entry): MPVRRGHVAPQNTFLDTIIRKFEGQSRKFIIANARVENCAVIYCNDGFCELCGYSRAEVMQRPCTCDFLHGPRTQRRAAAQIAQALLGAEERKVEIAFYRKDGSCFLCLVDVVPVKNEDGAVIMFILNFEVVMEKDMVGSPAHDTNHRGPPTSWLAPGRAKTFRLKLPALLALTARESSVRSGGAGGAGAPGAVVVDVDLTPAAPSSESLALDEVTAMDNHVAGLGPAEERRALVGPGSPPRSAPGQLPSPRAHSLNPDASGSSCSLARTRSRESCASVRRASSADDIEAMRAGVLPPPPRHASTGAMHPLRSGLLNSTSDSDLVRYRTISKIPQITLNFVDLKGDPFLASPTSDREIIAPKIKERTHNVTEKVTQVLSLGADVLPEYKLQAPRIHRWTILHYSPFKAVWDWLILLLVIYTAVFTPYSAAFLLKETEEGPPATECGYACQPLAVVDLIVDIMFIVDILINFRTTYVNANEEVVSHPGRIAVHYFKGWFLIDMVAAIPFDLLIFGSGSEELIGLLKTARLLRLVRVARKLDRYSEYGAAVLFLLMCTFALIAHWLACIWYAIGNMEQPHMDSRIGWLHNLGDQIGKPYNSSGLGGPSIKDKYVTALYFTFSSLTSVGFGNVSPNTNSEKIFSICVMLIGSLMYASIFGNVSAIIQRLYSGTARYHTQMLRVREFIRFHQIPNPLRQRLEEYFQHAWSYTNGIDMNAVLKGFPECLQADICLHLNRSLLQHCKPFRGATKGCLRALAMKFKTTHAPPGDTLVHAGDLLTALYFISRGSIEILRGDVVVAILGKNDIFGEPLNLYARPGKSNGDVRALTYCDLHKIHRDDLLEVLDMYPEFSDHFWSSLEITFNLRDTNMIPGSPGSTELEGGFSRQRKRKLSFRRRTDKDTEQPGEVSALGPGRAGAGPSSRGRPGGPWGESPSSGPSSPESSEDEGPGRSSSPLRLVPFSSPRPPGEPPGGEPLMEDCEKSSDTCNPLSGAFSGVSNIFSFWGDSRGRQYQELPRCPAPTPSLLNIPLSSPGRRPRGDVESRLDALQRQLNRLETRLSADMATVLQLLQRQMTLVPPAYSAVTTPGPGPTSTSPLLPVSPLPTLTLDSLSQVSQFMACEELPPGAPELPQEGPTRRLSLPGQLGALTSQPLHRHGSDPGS

[28] = Cytotoxicity against human HepG2 cells; assay type: cell-based
Rattus norvegicus [29] = assay: Antiarthritic activity in po dosed rat model of collagen-induced arthritis assessed as inhibition of paw swelling administered bid for 8 days measured on day 8 up to 12 hrs; assay type: functional

Structure (SMILES): CC1(C)Oc2ccc(Nc3nc(NCC(F)(F)F)c4occc4n3)cc2NC1=O
- CL free [1]: 177 mL/min/kg

Structure (SMILES): C[C@]12C=CC(=O)C=C1CC[C@@H]1[C@@H]2[C@@H](O)C[C@@]2(C)[C@H]1CC[C@]2(O)C(=O)CO [PREDNISOLONE]
- inhibition in vivo at 3 mg/kg (Rattus norvegicus [8]): 86%

Structure (SMILES): COC(=O)N[C@@H]1CC(C)(C)c2ccc(Nc3nc(NCC(F)F)c4occc4n3)cc2NC1=O
- CL free [1]: 177 mL/min/kg
- CL free [2]: < 38.3 mL/min/kg
- solubility at 48 h [3]: > 67 µM
- TDI (Cytochrome P450 3A4): Not Active
- clearance [9]: 28.3 mL/min/kg
- clearance [10]: 2.83 mL/min/kg
- half-life [11]: 2 h
- half-life [12]: 9.9 h
- Vd [13]: 4.6 L/kg
- Vd [14]: 2.3 L/kg
- bioavailability [15]: 27%
- bioavailability [16]: 40%
- AUC [17]: 180 ng·h/mL
- AUC [18]: 2340 ng·h/mL
- Cmax [19]: 36 ng/mL
- Cmax [20]: 151 ng/mL
- ED50 (Rattus norvegicus [21]): 9 mg/kg
- inhibition in vivo at 0.3 mg/kg (Rattus norvegicus [22]): 21%
- inhibition in vivo at 1 mg/kg (Rattus norvegicus [23]): 21%
- inhibition in vivo at 3 mg/kg (Rattus norvegicus [8]): 28%
- inhibition in vivo at 10 mg/kg (Rattus norvegicus [24]): 75%
- inhibition in vivo at 30 mg/kg (Rattus norvegicus [25]): 95%
- Activity (Rattus norvegicus [26]): Non-Toxic
- IC50 [27]: > 20 µM
- IC20 [28]: > 10 µM
- EAUC50 (Rattus norvegicus [29]): 3.9 µg·h/mL

Structure (SMILES): CC1(C)CCC(=O)Nc2cc(Nc3nc(NCC(F)(F)F)c4occc4n3)ccc21
- CL free [1]: 880 mL/min/kg

Next, values leading:

- CL free [1]: 200 mL/min/kg
- CL free [2]: 120 mL/min/kg
- solubility at 48 h [3]: 158 µM (≈ 59.9 µg/mL)
- TDI (Cytochrome P450 3A4): Active
- activity at 0 min, 10 µM (CYP3A4 [4]): 97%
- activity at 0 min, 50 µM (CYP3A4 [5]): 80%
- activity at 0.5 h, 10 µM (CYP3A4 [6]): 56%
- activity at 0.5 h, 50 µM (CYP3A4 [7]): 14%
Structure (SMILES): CC1(C)OCC(=O)Nc2cc(Nc3nc(NC4CC4)c4occc4n3)ccc21

- CL free [1]: 1080 mL/min/kg
- CL free [2]: 507 mL/min/kg
Structure (SMILES): CC(C)CNc1nc(Nc2ccc3c(c2)NC(=O)COC3(C)C)nc2ccoc12
